Results from US20240350456A1, “COMPOSITIONS AND METHODS FOR DIAGNOSING AND TREATING INFLAMMATORY CONDITIONS” (RUTGERS, THE STATE UNIVERSITY OF NEW JERSEY, priority 2023, published 2024).

What was measured:
[1] = tested on: Tff3 and Lyz1 (goblet and Paneth cells); assay: Organoids: goblet and Paneth cell transcripts (Tff3, Lyz1) and cell numbers; type: cell-based, mouse; conditions: enteroids
Procedure: (§1) We had 2 series of metabolite-treated organoid experiments, i.e., 1) organoid from conventional C57BL6 mice and 2) Ocln KO and littermate WT control as a gift from Prof. Jerrold Turner (Harvard University). […] Seeding is designated as day 0. On day 3 of culture, the existing media in the wells were completely removed before adding treatments. LPS (1 μg/mL) with or without metabolites, i.e., IPA (0.1 mM) (Li et al., 2021), IAM (200 μM) (Vyhlidalova et al., 2020), MNA (12 ng/ml) (Liu et al., 2015), CARN (20 mM) (Boldyrev et al., 2013) or ASA (1 μM) (Erez et al., 2011) were each added in CCM at known physiological concentrations, incubated for 48 hours, thereafter, organoid was harvested for RNA extraction, and paraformaldehyde fixation for immunostaining.
(§2) Total RNA was extracted from the intestinal organoids using a commercially available kit (RNeasy Microkit; Qiagen, MD, Cat. #74004) following manufacturer's instructions. mRNA samples were converted to cDNA using Bio-Rad's iScript Reverse Transcription Supermix for RT-qPCR (Bio-Rad Laboratories, Hercules, CA, Cat. #1708840). cDNA was then used for RT-qPCR (Mx3000P. Stratagene, La Jolla, CA) to analyze several genes using Maxima SYBR Green qPCR Master Mix (Thermo Fisher Scientific, Waltham, MA) and primers (Integrated DNA Technologies, Coralville, IA). Thermal profile for three-step cycling was 10 min at 95° C. for initial denaturation; then 40 cycles of 15 sec at 95° C. for denaturation, 30 sec at 65° C. for annealing, and 30 sec at 75° C. for extension. Primers used are as follows: β-actin (Actb), forward 5′-[…]-3′ (SEQ ID NO: 5), reverse 5′-[…]-3′ (SEQ ID NO: 6); ZO-1 (Tjp1), forward 5′-[…]-3′ (SEQ ID NO: 7), reverse 5′-[…]-3′ (SEQ ID NO: 8), Ocln, forward 5′-[…]-3′ (SEQ ID NO: 9), reverse 5′-[…]-3′ (SEQ ID NO: 10); Lyz1, forward 5′-ATGGCTACCGTGGTGTCAAG-3′ (SEQ ID NO: 11), reverse 5′-CGGTCTCCACGGTTGTAGTT-3′ (SEQ ID NO: 12); Tff3, forward 5′-TAATGCTGTTGGTGGTCCTG-3′ (SEQ ID NO: 13), reverse 5′-CAGCCACGGTTGTTACACTG-3′ (SEQ ID NO: 14). All samples were normalized to β actin expression. Gene expression levels are depicted as fold change relative to the control group.
(§3) Immunocytochemistry followed earlier work (Pearce et al., 2018). Briefly, organoids were extracted from Matrigel by using cell recovery solution (Corning, Cat. No. 354253), processed then fixed in 4% paraformaldehyde for 15 min and dehydrated with 70% ethanol and kept in 4° C. until embedded in paraffin. On the day of embedding, organoids were gently spun down to a pellet (250 g for 5 min), then the supernatant was removed, the pellet resuspended in agarose and embedded in paraffin. […]

[2] = tested on: ZO-1 (Tjp1) and Ocln; assay: Intestinal organoids treated with LPS and metabolites: tight junction (TJ) expression, RT-qPCR and immunostaining; type: cell-based, mouse; conditions: for gene expression of Ocln: ex vivo, in the presence of the barrier disruptor; for TJ expression at the protein and mRNA levels: in the presence of LPS (1 μg/mL), 48 hr
Procedure: Intestinal organoids were isolated as previously described (Das et al., 2015; Pearce et al., 2018). Briefly, crypts were isolated from small intestine of conventional house C57BL/6 male mice (Taconic Laboratories, Hudson, NY) by shaking in isolation buffer (2 mM EDTA in PBS), then, crypts were harvested, processed, and suspended in crypt culture medium (CCM), which consisted of advanced DMEM/F12 (Life Technologies, Carlsbad, CA) supplemented with serum-free B27 (1:50; Life Technologies), N2 (1:100; Life Technologies), N-acetylcysteine (1 mM; Sigma-Aldrich, St. Louis, MO), recombinant murine epithelial growth factor (EGF, 50 ng/ml; Peprotech, Rocky Hill, NJ), Noggin (100 ng/ml; Peprotech), R-Spondin (500 ng/ml; Peprotech), Glutamax-I supplement (1:100; Life Technologies), penicillin/streptomycin (500 μg/ml; Life Technologies), and HEPES ([…]; Life Technologies). Crypts were resuspended in 70% Matrigel (density ˜450 crypts per dome, 2 domes per well in 24-well plate) and allowed to solidify at 37° C. for 20 min. CCM (1.5 mL) was then added to each well. Cultures were incubated in a humidified incubator at 37° C., and CCM was changed daily. Intestinal organoid treatment with LPS and metabolites
as §1, §2, §3

SMILES | goblet and Paneth cell transcripts and cell numbers [1] | gene expression of Ocln [2] | TJ expression at the protein and mRNA levels [2]
NC(=O)Cc1c[nH]c2ccccc12 [Indole-3-acetamide, indole-3-acetamide] | reduced goblet and Paneth cell transcripts as well as cell numbers | increased gene expression of Ocln | increased TJ expression
C[n+]1cccc(C(N)=O)c1 [Methylnicotinamide, 1-methynicotinamide] | reduced goblet and Paneth cell transcripts as well as cell numbers | increased gene expression of Ocln | increased TJ expression
